# Measurements as given in ChEMBL document CHEMBL1833889, “Ursolic acid is a PPAR-α agonist that regulates hepatic lipid metabolism” (Bioorg Med Chem Lett, 2011).
# Activity calls are given as the source filed them. The rule behind the calls is not given here.
# Assays:
# [1] = biological target: T1, Peroxisome proliferator-activated receptor alpha (Homo sapiens) (UniProt Q07869); test: Binding affinity to histidine-tagged human PPARalpha-LBD by SPR analysis
# T1 sequence (whole entry): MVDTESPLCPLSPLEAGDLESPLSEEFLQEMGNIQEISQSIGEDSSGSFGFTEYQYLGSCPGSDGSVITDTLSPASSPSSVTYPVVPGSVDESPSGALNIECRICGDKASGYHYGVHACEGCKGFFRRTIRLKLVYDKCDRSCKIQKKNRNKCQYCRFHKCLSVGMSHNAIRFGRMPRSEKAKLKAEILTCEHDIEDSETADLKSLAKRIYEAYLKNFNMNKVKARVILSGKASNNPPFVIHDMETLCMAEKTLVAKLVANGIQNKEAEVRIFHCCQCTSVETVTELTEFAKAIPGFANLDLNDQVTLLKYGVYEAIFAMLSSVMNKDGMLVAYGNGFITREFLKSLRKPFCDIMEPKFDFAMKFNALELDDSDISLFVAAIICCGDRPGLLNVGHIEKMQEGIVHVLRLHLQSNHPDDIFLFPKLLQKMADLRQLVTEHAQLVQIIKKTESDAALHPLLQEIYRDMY
# [2] = biological target: T1, Peroxisome proliferator-activated receptor alpha (Homo sapiens); test: (§1) Binding affinity to histidine-tagged human PPARalpha-LBD assessed as recruitment of co-activator peptide fluorescein-labeled PGC1alpha after 2 hrs by TR-FRET assay
# [3] = biological target: T2, Peroxisome proliferator-activated receptor alpha (Homo sapiens, UniProt Q07869); test: as §1
# T2 sequence (Q07869 whole entry): T1 sequence (whole entry)
# [4] = system: HepG2; test: Induction of BODIPY-labeled 4,4-difluoro-5-methyl-4-bora-3a,4a-diaza-s-indacene-3-dodecanoic acid uptake in human HepG2 cells after 1 min by FACS analysis; type: functional, cell-based
# [5] = biological target: T1, Peroxisome proliferator-activated receptor alpha (Homo sapiens); test: Agonist activity at PPARalpha in human HepG2 cells assessed as up-regulation of PPARalpha mRNA expression at 80 uM by quantitative PCR analysis; type: functional, cell-based
# [6] = biological target: T1, Peroxisome proliferator-activated receptor alpha (Homo sapiens); test: Agonist activity at PPARalpha in human HepG2 cells assessed as down-regulation of SREBP1c mRNA expression at 80 uM by quantitative PCR analysis; type: functional, cell-based
# [7] = biological target: T1, Peroxisome proliferator-activated receptor alpha (Homo sapiens); test: (§2) Agonist activity at human recombinant PPARalpha expressed in HepG2 cells co-transfected with pGL3-PPRE3-TK-luc reporter assessed as […] after 24 hrs by luciferase based transactivation assay; type: functional, cell-based
# [8] = biological target: T2, Peroxisome proliferator-activated receptor alpha; test: as §2; type: functional, cell-based
# [9] = biological target: T1, Peroxisome proliferator-activated receptor alpha (Homo sapiens); test: Agonist activity at PPARalpha in human HepG2 cells assessed as up-regulation of ACOX mRNA level at 80 uM by quantitative PCR analysis; type: functional, cell-based
# [10] = system: HepG2; test: Hypolipidemic activity in human HepG2 cells assessed as decrease in cholesterol level at 5 uM by fluorescence-based method relative to control; type: functional; parameters: scale not given: the % may be the effect or the level left
# [11] = system: HepG2; test: Hypolipidemic activity in human HepG2 cells assessed as decrease in triglyceride level at 5 uM relative to control; type: functional; parameters: scale not given: the % may be the effect or the level left
# [12] = biological target: T1, Peroxisome proliferator-activated receptor alpha (Homo sapiens); test: Agonist activity at PPARalpha in human HepG2 cells assessed as up-regulation of FATP4 mRNA expression at 80 uM by quantitative PCR analysis; type: functional, cell-based
# [13] = system: HepG2; test: Induction of BODIPY-labeled 4,4-difluoro-5-methyl-4-bora-3a,4a-diaza-s-indacene-3-dodecanoic acid uptake in human HepG2 cells at 80 uM after 1 min by FACS analysis; type: functional
# [14] = biological target: T1, Peroxisome proliferator-activated receptor alpha (Homo sapiens); test: Agonist activity at human recombinant PPARalpha expressed in HepG2 cells co-transfected with pGL3-PPRE3-TK-luc reporter assessed as […] at 80 uM after 24 hrs by luciferase based transactivation assay; type: functional, cell-based
# [15] = biological target: T1, Peroxisome proliferator-activated receptor alpha (Homo sapiens); test: Agonist activity at PPARalpha in human HepG2 cells assessed as effect on LPL mRNA expression at 5 to 80 uM by quantitative PCR analysis; type: functional, cell-based
# [16] = system: HepG2; test: Hypolipidemic activity in human HepG2 cells assessed as decrease in cholesterol level at 20 uM by fluorescence-based method relative to control; type: functional; parameters: scale not given: the % may be the effect or the level left
# [17] = biological target: T1, Peroxisome proliferator-activated receptor alpha (Homo sapiens); test: Agonist activity at PPARalpha in human HepG2 cells assessed as down-regulation of SCD1 mRNA expression at 80 uM by quantitative PCR analysis; type: functional, cell-based
# [18] = biological target: T1, Peroxisome proliferator-activated receptor alpha (Homo sapiens); test: Agonist activity at PPARalpha in human HepG2 cells assessed as up-regulation of acyl-CoA synthetase mRNA expression at 5 to 80 uM by quantitative PCR analysis; type: functional, cell-based
# [19] = system: HepG2; test: Hypolipidemic activity in human HepG2 cells assessed as decrease in triglyceride level at 20 uM relative to control; type: functional; parameters: scale not given: the % may be the effect or the level left
# [20] = biological target: T1, Peroxisome proliferator-activated receptor alpha (Homo sapiens); test: Agonist activity at PPARalpha in human HepG2 cells assessed as up-regulation of PPARalpha mRNA expression at 5 uM by quantitative PCR analysis; type: functional, cell-based
# [21] = biological target: T1, Peroxisome proliferator-activated receptor alpha (Homo sapiens); test: Agonist activity at PPARalpha in human HepG2 cells assessed as up-regulation of PPARalpha mRNA expression at 20 uM by quantitative PCR analysis; type: functional, cell-based
# [22] = biological target: T1, Peroxisome proliferator-activated receptor alpha (Homo sapiens); test: Agonist activity at PPARalpha in human HepG2 cells assessed as up-regulation of FATP4 mRNA expression at 20 uM by quantitative PCR analysis; type: functional, cell-based
# [23] = system: HepG2; test: Hypolipidemic activity in human HepG2 cells assessed as decrease in triglyceride level at 80 uM relative to control; type: functional; parameters: scale not given: the % may be the effect or the level left
# [24] = system: HepG2; test: Hypolipidemic activity in human HepG2 cells assessed as decrease in cholesterol level at 80 uM by fluorescence-based method relative to control; type: functional; parameters: scale not given: the % may be the effect or the level left
# [25] = biological target: T1, Peroxisome proliferator-activated receptor alpha (Homo sapiens); test: Agonist activity at PPARalpha in human HepG2 cells assessed as up-regulation of carnitine palmitoyl transferase mRNA expression at 80 uM by quantitative PCR analysis relative to control; type: functional, cell-based
# [26] = biological target: T1, Peroxisome proliferator-activated receptor alpha (Homo sapiens); test: Agonist activity at human recombinant PPARalpha expressed in HepG2 cells assessed as binding of activated PPARalpha to the PPRE at 20 uM by ELISA-based assay; type: cell-based
# [27] = biological target: T1, Peroxisome proliferator-activated receptor alpha (Homo sapiens); test: Agonist activity at PPARalpha in human HepG2 cells assessed as down-regulation of FAS mRNA expression at 80 uM by quantitative PCR analysis; type: functional, cell-based
smiles,measurement,setting,value
CC(C)(Oc1ccc(C(=O)c2ccc(Cl)cc2)cc1)C(=O)O [FENOFIBRIC ACID],Activity,[1],Active
same,Activity,[2],Dose-dependent effect
same,EC50,[3],4.5 µM
same,Activity,[4],Dose-dependent effect
C[C@H]1[C@H](C)CC[C@]2(C(=O)O)CC[C@]3(C)C(=CC[C@@H]4[C@@]5(C)CC[C@H](O)C(C)(C)[C@@H]5CC[C@]43C)[C@H]12 [URSOLIC ACID],Activity,[5],195%
same,Activity,[6],28%
same,Activity,[7],Dose-dependent effect
same,EC50,[8],41.3 µM
same,Activity,[9],24%
same,Activity,[10],11%
same,Activity,[11],23.5%
same,Activity,[1],inactive
same,Activity,[12],259%
same,Activity,[13],108.7%
same,Activity,[14],214%
same,Activity,[15],inactive
same,Activity,[16],18.9%
same,Activity,[2],inactive
same,Activity,[17],15%
same,Activity,[18],Active
same,Activity,[19],38.8%
same,Activity,[20],134%
same,Activity,[21],156%
same,Activity,[22],185%
same,Activity,[23],44.7%
same,Activity,[24],26.5%
same,Activity,[25],1020%
same,Activity,[26],46%
same,Activity,[27],23%
